# In the NIST ThermoML archive (doi:10.1021/je100896n):
# ± gives the expanded uncertainty stated by the source.
# Details: Fluid (supercritical or subcritical phases), Pulse-echo method
compound,measurement,setting,value
"F/C=C/C(F)(F)F [trans-1,3,3,3-tetrafluoropropene]",speed of sound,"259.98 K, 1980 kPa",715.11 ± 1.4 m/s
same,speed of sound,"259.98 K, 3989 kPa",728.84 ± 1.4 m/s
same,speed of sound,"260 K, 6021 kPa",742.08 ± 1.4 m/s
same,speed of sound,"260 K, 8007 kPa",754.65 ± 1.4 m/s
same,speed of sound,"260.01 K, 10070 kPa",767.16 ± 1.4 m/s
same,speed of sound,"285 K, 1956 kPa",606.38 ± 1.5 m/s
same,speed of sound,"285 K, 4021 kPa",624.26 ± 1.4 m/s
same,speed of sound,"285 K, 6056 kPa",640.72 ± 1.4 m/s
same,speed of sound,"285 K, 8005 kPa",655.64 ± 1.4 m/s
same,speed of sound,"285 K, 9989 kPa",670.06 ± 1.4 m/s
same,speed of sound,"310 K, 2063 kPa",497.64 ± 1.7 m/s
same,speed of sound,"310 K, 3947 kPa",519.14 ± 1.6 m/s
same,speed of sound,"310 K, 10112 kPa",578.79 ± 1.5 m/s
same,speed of sound,"310.01 K, 6041 kPa",540.98 ± 1.5 m/s
same,speed of sound,"310.01 K, 8005 kPa",559.88 ± 1.5 m/s
same,speed of sound,"335 K, 7985 kPa",465.6 ± 1.6 m/s
same,speed of sound,"335 K, 10020 kPa",488.5 ± 1.6 m/s
same,speed of sound,"335.01 K, 2007 kPa",379.56 ± 2 m/s
same,speed of sound,"335.01 K, 4027 kPa",413.08 ± 1.9 m/s
same,speed of sound,"335.01 K, 5978 kPa",440.56 ± 1.7 m/s
same,speed of sound,"360 K, 6047 kPa",340.1 ± 2.2 m/s
same,speed of sound,"360.02 K, 3998 kPa",296.31 ± 2.4 m/s
same,speed of sound,"360.03 K, 8052 kPa",373.95 ± 1.9 m/s
same,speed of sound,"360.03 K, 10036 kPa",402.5 ± 1.8 m/s
"C=C(F)C(F)(F)F [2,3,3,3-tetrafluoro-1-propene]",speed of sound,"259.99 K, 4968 kPa",655.69 ± 1.4 m/s
same,speed of sound,"260 K, 1989 kPa",632.05 ± 1.4 m/s
same,speed of sound,"260 K, 3044 kPa",640.57 ± 1.4 m/s
same,speed of sound,"260 K, 4057 kPa",648.57 ± 1.4 m/s
same,speed of sound,"260 K, 5993 kPa",663.37 ± 1.4 m/s
same,speed of sound,"285 K, 4006 kPa",546.27 ± 1.5 m/s
same,speed of sound,"285 K, 5983 kPa",565.09 ± 1.5 m/s
same,speed of sound,"285.01 K, 2033 kPa",525.9 ± 1.6 m/s
same,speed of sound,"285.01 K, 3011 kPa",536.18 ± 1.5 m/s
same,speed of sound,"285.01 K, 5090 kPa",556.71 ± 1.5 m/s
same,speed of sound,"310 K, 5016 kPa",456.81 ± 1.7 m/s
same,speed of sound,"310 K, 6057 kPa",469.1 ± 1.6 m/s
same,speed of sound,"310.01 K, 2013 kPa",415.62 ± 2.2 m/s
same,speed of sound,"310.01 K, 3042 kPa",430.67 ± 1.8 m/s
same,speed of sound,"310.01 K, 4019 kPa",444 ± 1.7 m/s
same,speed of sound,"334.98 K, 5937 kPa",371.38 ± 1.9 m/s
same,speed of sound,"335 K, 2073 kPa",293.74 ± 2.6 m/s
same,speed of sound,"335 K, 3039 kPa",317.18 ± 2.5 m/s
same,speed of sound,"335 K, 3985 kPa",336.92 ± 2.2 m/s
same,speed of sound,"335 K, 5008 kPa",355.82 ± 2.1 m/s
same,speed of sound,"359.94 K, 6062 kPa",275.99 ± 2.8 m/s
same,speed of sound,"359.96 K, 4997 kPa",248.55 ± 2.8 m/s
